Assays:
Assay in all cases: dopachrome formation, absorbance […] nm, non-linear regression
Conditions in all cases: free enzyme; 0.05 M Na-phosphate pH 6.5; 1-30 mM L-DOPA
[1] = test system: tyrosinase from D. rotundata; format: biochemical, Dioscorea cayenensis subsp. rotundata
tyrosinase from D. alata = format: biochemical, Dioscorea alata
[2] = test system: tyrosinase from D. praehensilis; format: biochemical, Dioscorea praehensilis
[3] = test system: tyrosinase from C. esculenta; format: biochemical, Colocasia esculenta

- Km [1]: 6.8 ± 2.6 mM
- Km (tyrosinase from D. alata): 20 ± 11 mM
- Km [2]: 9.6 ± 3.7 mM
- Km [3]: 23.7 ± 14 mM
Structure (SMILES): N[C@@H](Cc1ccc(O)c(O)c1)C(=O)O [L-DOPA, 3,4-dihydroxyphenyl-L-alanine]

Reference: paper PMC7352059 (Biotechnology Reports, 2020)
